Results: patent US9700525B2, “Continuous local slow-release of therapeutics for head and neck problems and upper aerodigestive disorders” (Board of Supervisors of Louisiana State University and …, priority 2008, dated 2017)

Columns and labels:
Akt/mTOR pathway = assay: Model of minimal residual disease; assay type: in vivo
mTOR pathway markers = conditions: tumors and PBMCs of HNSCC patients; cited from earlier work
SCC40 xenografts = assay: Akt/mTOR pathway markers in SCC40 xenografts of treated mice; assay type: in vivo; conditions: mice with SCC40 xenografts treated with curcumin
[1] = tested on: prostate cancer xenograft; conditions: p.o. gavage 5 mg/day, 5 days/week for 4 weeks; cited from earlier work
TPA-induced tumors = conditions: topical application of 10 μmol twice weekly; cited from earlier work
[2] = tested on: normal fibroblast cell line CCL110; assay: Effect on proliferation of normal fibroblast cell line; assay type: cell-based
tumor cells = assay: Chemoprevention model: pre-treatment before tumor cell injection, tumor volumes; assay type: in vivo, Balb/c nu/nu mice; conditions: pre-treated 4 days prior to injecting tumor cells
Description: Balb/c nu/nu mice were randomized into treatment groups. […] Tumors were measured over approximately three weeks. […] ANOVA analysis. […] This also points to its role as a chemopreventive agent rather than a therapeutic agent.

[3] = tested on: NFκB and Akt/mTOR pathways; assay: Modulation of NFκB and Akt/mTOR pathways in cell lines (western blot); assay type: cell-based
DMBA-induced oral tumors = conditions: 10 μmol topically 3 times/week for 24 weeks; cited from earlier work
HNSCC cell lines = assay: Inhibition of cell proliferation in HNSCC cell lines; assay type: cell-based
Source text: While curcumin can be used to treat these cancers, other compounds that act on these pathways may also be useful in treating these cancers and it should be readily recognized that such compounds could also be delivered by including in the formulations described herein.

[4] = following oral administration; cited from earlier work

CO[C@H]1C[C@@H]2CC[C@@H](C)[C@@](O)(O2)C(=O)C(=O)N2CCCC[C@H]2C(=O)O[C@H]([C@H](C)C[C@@H]2CC[C@@H](OC(=O)C(C)(CO)CO)[C@H](OC)C2)CC(=O)[C@H](C)/C=C(\C)[C@@H](O)[C@@H](OC)C(=O)[C@H](C)C[C@H](C)/C=C/C=C/C=C/1C [CCI-779, temsirolimus]
survival (Akt/mTOR pathway): improve survival
tumor formation (Akt/mTOR pathway): inhibit tumor formation
modulation of mTOR pathway markers (mTOR pathway markers): modulation of these markers

COc1cc(/C=C/C(=O)CC(=O)/C=C/c2ccc(O)c(OC)c2)ccc1O [curcumin]
change in pAkt (SCC40 xenografts): significant decrease
change in pS6 (SCC40 xenografts): significant decrease
inhibition of growth of prostate cancer xenograft [1]: ~50%
inhibition of the number of tumors per mouse (TPA-induced tumors): 98%
dose required to see effects [2]: 20 to 40 µM
difference in tumor volumes vs control (vehicle treated) (tumor cells; 10 mg): no significant difference
difference in tumor volumes vs control (vehicle treated) (tumor cells; 15 mg, about three weeks): statistically significant difference
change in pNFκB ([3]; PCI15a cells, 10 μM, 24 and 48 hours): no change
change in pAkt ([3]; PCI15a cells, 10 μM, 48 hours): down-regulated
change in pS6 downstream of mTOR ([3]; PCI15a cells, 10 μM, 48 hours): down-regulated
change in the Akt/mTOR pathway ([3]; SCC40 cells, 10 μM): no change
change in pNFκB ([3]; SCC40 cells, 10 μM, 48 hours): down-regulation
modulation of the Akt/mTOR pathway ([3]; SCC066 cells, 10 μM): did not show any modulation
change in pNFκB or Akt/mTOR ([3]; normal fibroblast cell line CCL110, 10 μM): no decrease
reduction of the number of DMBA-induced oral tumors (DMBA-induced oral tumors): ~40%
growth inhibitory effect (HNSCC cell lines; all 10 HNSCC cell lines tested to date): growth inhibitory effects
growth inhibitory effect (HNSCC cell lines; three HNSCC cell lines, 10 μM, 48 hours): significant growth inhibitory effects
concentration giving consistent inhibition of cell proliferation (HNSCC cell lines; variety of HNSCC cell lines, in vitro): less than 10 μM
bioavailability [4]: low bioavailability
